{
  "source": "paper PMC7395068",
  "about": "“The evolution of strategies to minimise the risk of human drug-induced liver injury (DILI) in drug discovery and development” (Archives of Toxicology, 2020)",
  "origin": "cited, not measured here",
  "key": {"rBsep": {"system": "rBsep", "conditions": "In vitro Assay; ref Dawson 2012; cited from earlier work"}, "HepG2": {"system": "HepG2", "design": "method as in Albrecht 2019", "conditions": "In vitro Assay; ref Albrecht 2019; cited from earlier work"}, "[1]": {"system": "THLE-Null and THLE-3A4 cells", "conditions": "In vitro Assay; ref Gustafsson 2014; cited from earlier work"}, "human hepatocytes": {"system": "human hepatocytes", "conditions": "In vitro Assay; ref Xu 2008; cited from earlier work"}, "PHH [2]": {"system": "PHH", "conditions": "In vitro Assay; ref Albrecht 2019; cited from earlier work"}, "[3]": {"system": "primary human hepatocytes, NIH3T3 fibroblasts, BSEP, CYP3A4", "conditions": "cited from earlier work"}, "[4]": {"conditions": "cited from earlier work"}, "HepG2 cells": {"system": "HepG2 cells", "conditions": "cited from earlier work"}, "[5]": {"system": "HepG2 C3A spheroid, BSEP, Glu/Gal in HepG2 cells, bioactivation", "conditions": "cited from earlier work"}, "hLiMTs": {"system": "hLiMTs", "conditions": "cited from earlier work"}, "[6]": {"conditions": "cited from earlier work", "remark": "listed apart in the source"}, "[7]": {"system": "isolated mouse liver mitochondria", "conditions": "In vitro Assay; ref Porceddu 2012; cited from earlier work"}, "[8]": {"system": "THLE or HepG2 cells, isolated mitochondria, BSEP", "conditions": "cited from earlier work"}, "PHH [9]": {"system": "PHH", "conditions": "cited from earlier work"}, "PHH spheroids": {"system": "PHH spheroids", "conditions": "cited from earlier work; for hLiMTs ATP <20 x Cmax: In vitro Assay, ref Vorrink 2018"}, "[10]": {"conditions": "In vitro Assay, ref Schadt 2015"}},
  "note": "Where two headings read alike, the source gives them in different places.",
  "data": [
    {"smiles": "C[C@H]1COc2c(N3CCN(C)CC3)c(F)cc3c(=O)c(C(=O)O)cn1c23", "note": "[levofloxacin]", "values": [
      {"measurement": "Inhibition of rBsep cutoff<1& cmax u>.2", "setting": "rBsep", "value": "-VE"},
      {"measurement": "Inhibition of rBsep cutoff<3", "setting": "rBsep", "value": "-VE"},
      {"measurement": "Cytotoxicity HepG2 48 hrs", "setting": "HepG2", "value": "+VE"},
      {"measurement": "THLE-Null", "setting": "[1]", "value": "-VE"},
      {"measurement": "Structural based (HCI)", "setting": "human hepatocytes", "value": "-VE"},
      {"measurement": "Cytotoxicity PHH 48 hrs", "setting": "PHH [2]", "value": "+VE"},
      {"measurement": "Cellular toxicity (3T3 cells)", "setting": "[3]", "value": "-VE"},
      {"measurement": "Combined Assay", "setting": "[3]", "value": "-VE"},
      {"measurement": "GSH adduct HML", "setting": "[3]", "value": "-VE"},
      {"measurement": "Hepatocyte cellular toxicity", "setting": "[3]", "value": "-VE"},
      {"measurement": "MitoTox 3T3", "setting": "[3]", "value": "-VE"},
      {"measurement": "TDI CYP3A4", "setting": "[3]", "value": "-VE"},
      {"measurement": "hBSEP inhibition", "setting": "[3]", "value": "-VE"},
      {"measurement": "DILI +VE (5-8), DILI -VE (-4)", "setting": "[4]; in vivo", "value": "+VE"},
      {"measurement": "DILI severity category", "setting": "[4]; in vivo", "value": "vMost-DILI-Concern"}
    ]},
    {"smiles": "CS(=O)(=O)Nc1ccc([N+](=O)[O-])cc1Oc1ccccc1", "note": "[nimesulide]", "values": [
      {"measurement": "Cytotoxicity HepG2 48 hrs", "setting": "HepG2", "value": "+VE"},
      {"measurement": "Structural based (HCI)", "setting": "HepG2 cells", "value": "+VE"},
      {"measurement": "Bayesian Machine Learning", "setting": "[5]", "value": "+VE"},
      {"measurement": "Cytotoxicity PHH 48 hrs", "setting": "PHH [2]", "value": "+VE"},
      {"measurement": "hLiMTs ATP <100uM", "setting": "hLiMTs", "value": "+VE (key: +VE: IC50 threshold of 100 µM)"},
      {"measurement": "In vivo DILI", "setting": "[6]; in vivo", "value": "+VE"},
      {"measurement": "in vitro data EC2<=1x Cmax", "setting": "[7]", "value": "+VE"},
      {"measurement": "Ro2 Hybrid HRM Score", "setting": "[8]", "value": "+VE"},
      {"measurement": "DILI +VE (5-8), DILI -VE (-4)", "setting": "[4]; in vivo", "value": "+VE"},
      {"measurement": "DILI severity category", "setting": "[4]; in vivo", "value": "vMost-DILI-Concern"},
      {"measurement": "PHH ATP <100uM", "setting": "PHH [9]", "value": "+VE (key: +VE: IC50 threshold of 100 µM)"},
      {"measurement": "hLiMTs ATP <20 x Cmax", "setting": "PHH spheroids", "value": "+VE (IC20 < 20 × Cmax.tot cut-off)"}
    ]},
    {"smiles": "CC(CN1c2ccccc2Sc2ccccc21)N(C)C", "note": "(stereo not shown) [promethazine]", "values": [
      {"measurement": "Cytotoxicity HepG2 48 hrs", "setting": "HepG2", "value": "-VE"},
      {"measurement": "Structural based (HCI)", "setting": "human hepatocytes", "value": "-VE"},
      {"measurement": "Cytotoxicity PHH 48 hrs", "setting": "PHH [2]", "value": "-VE"},
      {"measurement": "Cellular toxicity (3T3 cells)", "setting": "[3]; [10]", "value": "+VE"},
      {"measurement": "Combined Assay", "setting": "[3]; [10]", "value": "-VE"},
      {"measurement": "GSH adduct HML", "setting": "[3]; [10]", "value": "+VE"},
      {"measurement": "Hepatocyte cellular toxicity", "setting": "[3]; [10]", "value": "-VE"},
      {"measurement": "MitoTox 3T3", "setting": "[3]; [10]", "value": "-VE"},
      {"measurement": "TDI CYP3A4", "setting": "[3]; [10]", "value": "-VE"},
      {"measurement": "hBSEP inhibition", "setting": "[3]; [10]", "value": "-VE"},
      {"measurement": "In vivo DILI", "setting": "[6]; ref Albrecht 2019", "value": "-VE"},
      {"measurement": "In vivo DILI", "setting": "[6]; ref Schadt 2015", "value": "-VE"},
      {"measurement": "In vivo DILI", "setting": "[6]; ref Vorrink 2018", "value": "-VE"},
      {"measurement": "In vivo DILI", "setting": "[6]; ref Xu 2008", "value": "-VE"},
      {"measurement": "DILI +VE (5-8), DILI -VE (-4)", "setting": "[4]; ref Chen 2016", "value": "+VE"},
      {"measurement": "DILI severity category", "setting": "[4]; ref Chen 2016", "value": "vLess-DILI-Concern"},
      {"measurement": "hLiMTs ATP <20 x Cmax", "setting": "PHH spheroids", "value": "-VE"}
    ]},
    {"smiles": "CC(C)NCC(O)COc1cccc2ccccc12", "note": "(stereo not shown) [propranolol, reference compound]", "values": [
      {"measurement": "Inhibition of rBsep cutoff<1& cmax u>.2", "setting": "rBsep", "value": "-VE"},
      {"measurement": "Inhibition of rBsep cutoff<3", "setting": "rBsep", "value": "-VE"},
      {"measurement": "Cytotoxicity HepG2 48 hrs", "setting": "HepG2", "value": "-VE"},
      {"measurement": "Cytotoxicity PHH 48 hrs", "setting": "PHH [2]", "value": "-VE"},
      {"measurement": "Ro2 Hybrid HRM Score", "setting": "[8]; In vitro Assay, ref Aleo 2019", "value": "-VE"},
      {"measurement": "Partition Hybrid HRM Score", "setting": "[8]", "value": "+VE"},
      {"measurement": "response of PHH spheroids at 5 × Cmax.tot", "setting": "PHH spheroids; ATP, 14 days, not positive at higher concentrations, ref Vorrink et al. 2018", "value": "positive"},
      {"measurement": "hLiMTs ATP <20 x Cmax", "setting": "PHH spheroids", "value": "-VE"}
    ]}
  ]
}
